Laboratory results: publication PMC9246869, “Allosteric inhibition of PPM1D serine/threonine phosphatase via an altered conformational state” (Nature Communications, 2022)
Where “and” joins values, the source holds several entries; their conditions need not be identical. Identical values can stand only once.

How the values were obtained:
[1] = target: T1, PPM1DΔhinge (Homo sapiens, UniProt O15297, DEL155-163/G166S/M164G/T165G); test: FDP (fluorescein diphosphate) enzymatic assay; assay type: biochemical; details: for FDP Assay, signal relative to 0 nM GSK (=100): PPM1DΔHinge, individual runs, listed as GSK
T1 construct: PPM1D1–154-GGS-167–420 (PPM1D∆hinge); His(6)-SUMO (N, cleaved yes); made in house; host or cells: E. coli BL21 (DE3)
T1 sequence (O15297 with tags, fused parts or gaps DEL155-163/M164G/T165G/G166S): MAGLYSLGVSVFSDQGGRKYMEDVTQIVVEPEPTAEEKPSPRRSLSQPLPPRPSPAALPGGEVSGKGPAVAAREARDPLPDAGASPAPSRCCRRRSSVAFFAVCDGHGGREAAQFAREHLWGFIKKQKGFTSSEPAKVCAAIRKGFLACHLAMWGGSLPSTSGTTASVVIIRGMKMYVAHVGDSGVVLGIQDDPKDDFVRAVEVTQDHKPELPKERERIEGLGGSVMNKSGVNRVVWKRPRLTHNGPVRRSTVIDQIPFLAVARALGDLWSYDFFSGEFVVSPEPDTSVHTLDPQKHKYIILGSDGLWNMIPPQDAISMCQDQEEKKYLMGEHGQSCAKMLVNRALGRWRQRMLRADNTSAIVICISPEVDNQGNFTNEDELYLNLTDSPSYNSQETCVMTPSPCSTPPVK
Experimental: The FDP assay was adapted from reported protocol with minor modifications. Fluorescein diphosphate tetra-ammonium salt (CAS 217305-49-2) was purchased from AAT Bioquest (Cat No.11600). The assay was carried out on a 384-well plate (Corning Cat No.3575) with assay buffer containing 50 mM Tris (pH 7.5), 50 mM NaCl, 30 mM MgCl2, 0.01% tween 20, and 2% DMSO. Reactions were initiated with the addition of FDP to a solution containing wild-type PPM1D or one of its variants, to a final concentration of 5 nM for PPM1D and 100 μM for FDP (or as indicated in Kcat/KM measurements). A fluorescent signal was detected on a Spectramax microplate reader (485/530 nm) for the next 15 min at room temperature with an interval for data collection of 45 s. For the IC50 measurement, the compound was pre-incubated with PPM1D for 1 h before addition of the substrate.

[2] = target: T2, PPM1D1–420 (Homo sapiens, UniProt O15297); test: Sedimentation velocity analytical ultracentrifugation (SV-AUC); details: PPM1D1–420 15 µM with 3x compound, 2% DMSO
T2 construct: PPM1D1–420 was PCR-amplified from the synthesized gene with BsaI sites; His(6)-SUMO (N, cleaved yes); made in house; host or cells: E. coli BL21 (DE3)
T2 sequence (O15297 1-420): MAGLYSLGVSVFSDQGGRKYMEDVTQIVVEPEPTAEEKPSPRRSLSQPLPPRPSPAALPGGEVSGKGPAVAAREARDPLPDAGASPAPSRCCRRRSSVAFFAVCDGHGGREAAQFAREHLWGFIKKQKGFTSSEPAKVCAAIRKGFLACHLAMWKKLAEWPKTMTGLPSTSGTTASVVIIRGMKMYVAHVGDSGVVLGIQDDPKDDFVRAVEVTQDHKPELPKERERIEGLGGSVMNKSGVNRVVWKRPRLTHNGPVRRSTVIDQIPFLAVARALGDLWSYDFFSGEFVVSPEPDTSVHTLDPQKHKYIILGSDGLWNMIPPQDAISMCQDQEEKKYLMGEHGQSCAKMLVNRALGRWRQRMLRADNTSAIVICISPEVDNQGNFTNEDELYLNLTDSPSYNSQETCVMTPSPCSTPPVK
Experimental: AUC experiments were done using an Optima ultracentrifuge (Beckman Instruments). Proteins were dialyzed at 4 °C prior to each experiment in 20 mM HEPES (pH 7.4), 100 mM NaCl, 5 mM MgCl2, 0.1 mM TCEP. Sedimentation velocity (SV-AUC) experiments were conducted using an An50 Ti rotor at 50,000 rpm and 20 °C following temperature equilibration for 1 h prior to the start of the experiment. […] We, therefore, present these SV-AUC data as relative sedimenting populations with their experimentally observed S values. Absorbance data were collected at 280 nm. SedFIT was used to model the sedimentation coefficient distributions [c(s) analysis] for each experiment[38],[39]. Data were then refined using the c(s) with a conformational change model to better estimate the relative populations observed for PPM1D1–420. SedNTerp was used to calculate protein parameters. Images were generated using GUSSI[41].

[3] = target: T3, PPM1DΔflap (Homo sapiens, UniProt O15297, DEL219-231/DEL235-284/E287S/S285N); test: Differential scanning calorimetry (DSC); assay type: binding; details: Supplementary Fig. 5B
T3 construct: PPM1D1–218-GGSNGS-288–420 (PPM1D∆flap); His(6)-SUMO (N, cleaved yes); made in house; host or cells: E. coli BL21 (DE3)
T3 sequence (O15297 with tags, fused parts or gaps DEL219-231/DEL235-284/S285N/E287S): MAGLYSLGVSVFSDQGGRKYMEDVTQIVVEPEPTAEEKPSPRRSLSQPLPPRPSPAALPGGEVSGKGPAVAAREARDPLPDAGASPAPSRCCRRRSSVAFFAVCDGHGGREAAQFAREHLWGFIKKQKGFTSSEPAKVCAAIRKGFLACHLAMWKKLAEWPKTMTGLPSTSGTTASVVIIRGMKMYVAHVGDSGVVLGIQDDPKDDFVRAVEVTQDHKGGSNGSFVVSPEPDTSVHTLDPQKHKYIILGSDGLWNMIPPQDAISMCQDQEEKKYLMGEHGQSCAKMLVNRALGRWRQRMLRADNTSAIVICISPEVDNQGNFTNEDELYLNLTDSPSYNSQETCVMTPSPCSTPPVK
Experimental: DSC thermograms were recorded in MicroCal DSC from Malvern with an autosampler. For DSC experiments the purified protein constructs were extensively dialyzed against 25 mM HEPES pH 7.5, 10 mM MgCl2, 150 mM NaCl and 1 mM TCEP. The experiments were performed using 0.4 mg/mL concentration of wild-type or mutant protein (8.5–8.9 µM), with and without GSK2830371 compound at 40 µM and 2% DMSO (v/v). The respective reference scans were run under identical DSC set up conditions and subtracted from each sample scan. The program was run in a continuous acquisition mode from 25 °C to 90 °C at a rate of 120 °C/h The heat capacity curves and midpoint temperature (Tm) were analyzed using Origin 7.0 software.

[4] = Solubility; assay type: physicochemical; details: precluded ITC

SMILES: Cc1ncc(Cl)cc1NCc1ccc(C(=O)N[C@@H](CC2CCCC2)C(=O)NC2CC2)s1 [GSK2830371]
- increase of IC50 in FDP assay upon hinge deletion ([1]; PPM1DΔhinge versus PPM1D1–420): 100 fold
- FDP Assay, signal relative to 0 nM GSK (=100) ([1]; [GSK] 9.76562 nM): 99.774 and 81.7509
- FDP Assay, signal relative to 0 nM GSK (=100) ([1]; [GSK] 19.5312 nM): 74.1093 and 82.0598
- FDP Assay, signal relative to 0 nM GSK (=100) ([1]; [GSK] 39.0625 nM): 92.7672 and 94.3849
- FDP Assay, signal relative to 0 nM GSK (=100) ([1]; [GSK] 78.125 nM): 88.4223 and 95.7187
- FDP Assay, signal relative to 0 nM GSK (=100) ([1]; [GSK] 156.25 nM): 86.3292 and 93.2128
- FDP Assay, signal relative to 0 nM GSK (=100) ([1]; [GSK] 312.5 nM): 78.7193 and 77.5806
- FDP Assay, signal relative to 0 nM GSK (=100) ([1]; [GSK] 625 nM): 74.7657 and 65.5885
- FDP Assay, signal relative to 0 nM GSK (=100) ([1]; [GSK] 1250 nM): 60.0936 and 55.4697
- FDP Assay, signal relative to 0 nM GSK (=100) ([1]; [GSK] 2500 nM): 47.8958 and 40.0931
- FDP Assay, signal relative to 0 nM GSK (=100) ([1]; [GSK] 5000 nM): 6.587 and 19.2353
- FDP Assay, signal relative to 0 nM GSK (=100) ([1]; [GSK] 10000 nM): 0.167 and 0.2855
- sedimentation peak (SV-AUC) in presence of compound [2]: 2.69 S
- thermal shift by DSC [3]: +8.5 °C
- solubility (in words) [4]: relatively low solubility
